Patent US6838237B2, “Antigenically reactive regions of the hepatitis a virus polyprotein” (The United States of America as represented by the …, priority 1996, dated 2005)
Where “and” joins values, the source holds several entries; their conditions need not be identical. Equal entries are not always repeated.

Assays:
[1] = test system: anti-HAV-negative sera; assay: EIA for anti-HAV: synthetic peptides reacted with anti-HAV-negative sera; assay type: binding, human; conditions: experiment 1: sera 1:100, cutoff P/N 3.0
Description: (§1) All anti-HAV-positive and anti-HAV-negative sera were randomly selected from a collection reposited at the Centers for Disease Control and Prevention, Atlanta, Ga. Serum specimens were collected from anti-HAV-positive patients with acute liver disease. Anti-HAV-negative serum specimens were collected from normal blood donors. All sera were initially tested by commercially available kit for the presence of anti-HAV activity (HAVAB and HAVAB-M, Abbott Laboratories, Abbott Park, Ill.)
(§2) Synthetic peptides (110 ml) at a concentration of 10 mg/ml in 0.1 M phosphate-buffered saline (PBS), pH 7.5, were adsorbed to microtiter wells (Immulon II, Dynatech Laboratories, Inc.) at room temperature for 12 h. Sera were diluted in PBS containing 0.1% Tween 20 and 10% normal goat serum (PBS-T) and 100 ml were added to each well, incubated for 60 min at 37E C, and washed with PBS containing Tween-20. […] Two different cutoffs were established for experiments 1 and 2. In experiment 1, the cutoff, expressed as a P/N ratio and equal to 3.0, was statistically established as the mean of negative controls plus at least 3.5 standard deviations (SD) above the mean, where P represents the optical density value at 493 nm (OD493) of anti-HAV-positive specimens and N represents the optical density value of negative controls. In experiment 2, a different cutoff was used to ensure statistical reliability and accurate interpretation of positive results. In this case, in addition to anti-HAV-negative sera, two irrelevant synthetic peptides were used as supplemental negative controls to determine the degree of nonspecific binding of anti-HAV sera to synthetic peptides. One cutoff, expressed as a P/N ratio and equal to 3.0, corresponded to the mean of negative serum controls plus at least 3.5 SD above the mean. A second cutoff was also expressed as a P/N ratio, where P represents the optical density value at 493 nm (OD493) for HAV peptides immunoreacting with anti-HAV-positive specimens and N represents the optical density value obtained with the irrelevant peptides. The second cutoff was equal 2.0 and corresponded to the mean of OD values obtained with the irrelevant peptides plus at least 3.5 SD above the mean. Synthetic peptides were considered immunoreactive with anti-HAV serum specimens only when both cutoffs were satisfied.

[2] = test system: anti-HAV-positive sera; assay: EIA for anti-HAV: synthetic peptides adsorbed to wells, reacted with anti-HAV-positive acute sera; assay type: binding, human; conditions: for Reactivity with acute sera (reactive/tested): experiment 1: sera 1:100, anti-human IgG-HRP, cutoff P/N 3.0; for Reactivity with acute sera (percent of sera reactive): experiment 1: sera 1:100, cutoff P/N 3.0; for P/N for acute sera (individual values) / P/N for acute sera (mean) / P/N for acute sera (range, in parentheses): experiment 1; for P/N for acute sera (individual values): single sera listed with semicolon; for P/N for acute sera (mean) / P/N for acute sera (range, in parentheses): OD493 positive/negative ratio of reactive sera
Description: as §1, §2

Sequence | Reactivity with negative sera (reactive/tested) [1] | Reactivity with acute sera (reactive/tested) [2] | Reactivity with acute sera (percent of sera reactive) [2] | P/N for acute sera (individual values) [2] | P/N for acute sera (mean) [2] | P/N for acute sera (range, in parentheses) [2] | immunoreactivity with anti-HAV-positive sera (in words) [2] | percent of (IgM) anti-HAV-positive sera immunoreactive with peptide [2]
LDENGLLLGVHPRLAQRILF [YK-1407] | 0/27 | 2/41 | 4.9% | 3.43 and 3.98 |  |  |  | 
LAKTNDAIKDMSCVDLIMDG [YK-1364] | 1/41 | 4/41 | 9.8% |  | 4.9 | (3.5-6.18) |  | 
HFKDPQYPVWELTIRVWSEL [YK-1222] | 0/46 | 2/41 | 4.9% |  | 4.29 |  |  | 
KINLADRMLGLSGVQEIKEQ [YK-1331] | 0/51 | 13/48 | 27.1% |  | 5.71 | (3.71-10.3) |  | 
RGKGEGLPGMCGGALVSSNQ [YK-1390] | 1/27 | 10/41 | 24.4% |  | 6.62 | (3.52-13.98) |  | 
EPLRTSVDKPGSKKTQGEKF [YK-1211] | 0/48 | 21/46 | 45.7% |  | 9.33 | (3.37-27.92) |  | 
WQRSNAEFEQNLENAQWFAF [YK-1436] | 1/27 | 4/41 | 9.8% |  | 4.49 | (3.35-5.89) |  | 
FWRGDLVFDFQVFPTKYHSG [YK-1248] | 0/46 | 3/41 | 7.3% | 3.16 and 3.2 |  |  |  | 
GLDHILSLADIEEEQMIQSV [YK-1206] | 0/46 | 8/42 | 19.1% |  | 9.46 | (3.01-27.07) |  | 
FTQCSMNVVSKTLFRKSPIY [YK-1395] | 1/27 | 8/41 | 19.5% |  | 6.52 | (3.51-17.52) |  | 
QFPFNASDSVGQQIKVIPVD [YK-1241] | 0/46 | 1/41 | 2.4% |  | 3.56 |  | Very weakly reactive | 
VLPPPRKMKGLFSQAKISLF [YK-1318] | 0/51 | 15/48 | 31.3% |  | 5.94 | (3.4-8.68) |  | 
KTMIRFGDVGLDLDFSAFDA [YK-1418] | 1/27 | 6/41 | 14.6% |  | 4.5 | (3.35-6.21) |  | 
SDPSQGGGIKITHFTTWTSI [YK-1235] | 0/48 | 11/46 | 23.9% |  | 4.2 | (3.0-4.95) |  | 
DVVLMKVPTIPKFRDITQHF [YK-1382] | 0/27 | 1/41 | 2.4% |  | 8.4 |  |  | 
NRGKMDVSGVQAPVGAITTI [YK-1268] | 2/48 | 7/46 | 15.2% |  | 9.1 | (6.07-15.25) |  | 

Sequence | Reactivity with negative sera (reactive/tested) [1] | Reactivity with acute sera (reactive/tested) [2] | Reactivity with acute sera (percent of sera reactive) [2] | P/N for acute sera (individual values) [2] | P/N for acute sera (mean) [2] | P/N for acute sera (range, in parentheses) [2] | immunoreactivity with anti-HAV-positive sera (in words) [2] | percent of (IgM) anti-HAV-positive sera immunoreactive with peptide [2]
PYKELRLEVGKQRLKYAQEE [YK-1316] | 2/51 | 20/48 | 41.7% |  | 8.71 | (3.5-17.8) |  | 
GGIKITHFTTWTSIPTLAAQ [YK-1236] | 0/48 | 22/46 | 47.8% |  | 4.68 | (3.1-9.33) |  | 
TTVSTEQNVPDPQVGITTMK [YK-1265] | 0/46 | 9/41 | 22.0% |  | 6.7 | (3.23-9.57) |  | 
VMTVEIRKQNMTEFMELWSQ [YK-1367] | 1/41 | 9/41 | 22.0% |  | 7.82 | (4.18-16.26) |  | 22.0%
DLEEIAANSKDFPNMSETDL [YK-1328] | 1/51 | 6/48 | 12.5% |  | 4.76 | (3.74-6.39) |  | 
RCEPVVCYLYGKRGGGKSLT [YK-1348] | 2/51 | 14/48 | 29.2% |  | 6.96 | (3.66-15.48) |  | 29.2%
VASHVRVNVYLSAINLECFA [YK-1261] | 1/46 | 16/41 | 39.0% |  | 5.27 | (3.72-7.9) | broadly and strongly immunoreactive | 
HGVTKPKQVIKLDADPVESQ [YK-1374] | 0/27 | 18/41 | 43.9% |  | 10.57 | (3.28-29.07) | very broad and strong antigenic reactivity | 
SDSVGQQIKVIPVDPYFFQM [YK-1243] | 0/46 | 1/41 | 2.4% |  | 3.47 |  | Very weakly reactive | 
SVTEQSEFYFPRAPLNSNAM [YK-1308] | 0/51 | 1/48 | 2.1% |  | 3.32 |  |  | 
NIGTGTSAYTSLNVLARFTD [YK-1224] | 0/46 | 9/41 | 22.0% |  | 3.53 | (3.09-4.17) |  | 
VDDPRSEEDKRFESHIECRK [YK-1314] | 1/51 | 26/48 | 54.2% |  | 14.68 | (3.53-89.96) | broad and strong antigenic reactivity | 
IKVIPVDPYFFQMTNTNPDQ [YK-1244] | 0/46 | 6/41 | 14.6% |  | 4.2 | (3.55-5.2) |  | 
RMYWGPAISYFHLNPGFHTG [YK-1414] | 0/27 | 1/41 | 2.4% |  | 3.35 |  |  | 
LNMASLEEKGRHFSSPFIIA [YK-1357] | 1/51 | 4/48 | 8.3% |  | 4.49 | (4.06-4.85) |  | 
